# Measurements from publication PMC9469100, “Turning Nonselective Inhibitors of Type I Protein Arginine Methyltransferases into Potent and Selective Inhibitors of Protein Arginine Methyltransferase 4 through a Deconstruction–Reconstruction and Fragment-Growing Approach” (Journal of Medicinal Chemistry, 2022).
# Read-outs that look alike come from different tables or passages of the source.
# Tests used:
# [1] = biological target: PRMT1 (Homo sapiens, UniProt Q99873); test: AlphaLISA PRMT1 activity assay (H4R3me); details: for IC50: AlphaLISA, hPRMT1, 10-concentration mode, threefold dilutions starting at 100 μM; for LE: ligand efficiency calculated from PRMT1 IC50 as a surrogate for KD
# Method: Then, we resolved to determine their effect on the catalytic activity of human recombinant PRMT1, chosen as representative of class I PRMTs. […] PRMT1 activity assays were performed by taking advantage of the AlphaLISA homogeneous proximity assay.
# The reaction was incubated for 60 min, and then it was stopped by the addition of 5 μL of antimethyl-histone H4 arginine 3 (H4R3me) AlphaLISA acceptor beads (PerkinElmer, #AL150) (final concentration, 20 μg/mL) diluted in Epigenetic Buffer 1X (PerkinElmer, #AL008).
# For each incubation step, the OptiPlate was sealed with protective foil to prevent evaporation and contamination. Donor and acceptor beads were added in subdued light.
# The 100% activity (positive control) was reached using the vehicle (DMSO) while the 0% activity (negative control) was obtained without the protein. Data were analyzed using Excel software. Values obtained for each compound are mean ± SD determined for three separate experiments.
# [2] = biological target: T1, human PRMT4 (full length) (Homo sapiens, UniProt Q86X55); test: SPR binding to immobilized PRMT4
# T1 construct: Full-length recombinant PRMT4 (Active motif, # 81107); purchased Active motif # 81107
# T1 sequence (Q86X55 1-608): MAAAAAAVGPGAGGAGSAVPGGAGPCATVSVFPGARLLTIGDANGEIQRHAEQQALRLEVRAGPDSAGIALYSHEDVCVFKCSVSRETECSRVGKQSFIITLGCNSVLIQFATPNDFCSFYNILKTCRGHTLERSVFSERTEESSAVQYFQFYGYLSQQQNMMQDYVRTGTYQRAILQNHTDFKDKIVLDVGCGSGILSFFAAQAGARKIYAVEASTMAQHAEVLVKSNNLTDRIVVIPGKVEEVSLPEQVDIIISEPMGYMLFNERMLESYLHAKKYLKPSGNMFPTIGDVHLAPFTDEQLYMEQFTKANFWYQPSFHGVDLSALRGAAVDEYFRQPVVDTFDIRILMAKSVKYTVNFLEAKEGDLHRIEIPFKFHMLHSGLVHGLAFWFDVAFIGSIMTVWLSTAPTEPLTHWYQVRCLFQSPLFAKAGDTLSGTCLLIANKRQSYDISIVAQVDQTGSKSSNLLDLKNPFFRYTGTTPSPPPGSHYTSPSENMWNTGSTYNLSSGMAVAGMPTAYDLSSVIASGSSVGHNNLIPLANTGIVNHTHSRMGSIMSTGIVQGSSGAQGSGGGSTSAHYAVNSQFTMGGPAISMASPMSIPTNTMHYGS
# Method: To this aim, human PRMT4 (full length) was covalently immobilized on a sensor chip surface using an amine-coupling approach, and the three compounds were injected at different concentrations over the protein surface. To reduce false positives from detergent-sensitive, nonspecific aggregation-based binding, detergents (0.05% Tween-20) were added to the running buffer in all experiments.
# SPR experiments were performed on a Biacore T200 biosensor (Cytiva). PBS buffer (phosphate-buffered saline, pH 7.4) supplemented with 0.05% Tween-20 was used as the running buffer. […] One flow cell was left empty for background subtractions. […] Each compound was tested in […], prepared starting from 640 to 10 nM. Binding experiments were performed at 25 °C by using a flow rate of 30 μL/min, with 90 s monitoring of association and 90 s monitoring of dissociation. Regeneration of the surfaces was performed, when necessary, by a 10 s injection of 5 mM NaOH. […] The corrected sensorgrams for each compound were fitted simultaneously using a 1:1 Langmuir model to obtain equilibrium dissociation constants (KD) and kinetic dissociation (koff) and association (kon) constants.
# [3] = read-out: % PRMT1 residual activ. @ 100 μM
# [4] = read-out: % PRMT1 residual activity at 100 uM
# Chain of PRMT1 (Q99873 whole entry): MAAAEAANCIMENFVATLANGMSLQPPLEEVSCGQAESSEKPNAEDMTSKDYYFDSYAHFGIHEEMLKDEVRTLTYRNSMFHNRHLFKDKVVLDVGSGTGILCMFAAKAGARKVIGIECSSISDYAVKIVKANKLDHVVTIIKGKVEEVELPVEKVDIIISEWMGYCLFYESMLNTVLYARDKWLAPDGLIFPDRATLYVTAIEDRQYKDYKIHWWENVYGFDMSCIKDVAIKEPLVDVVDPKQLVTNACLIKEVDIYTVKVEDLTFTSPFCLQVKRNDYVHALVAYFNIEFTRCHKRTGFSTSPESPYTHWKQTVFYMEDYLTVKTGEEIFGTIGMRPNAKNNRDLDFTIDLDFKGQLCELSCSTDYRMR
SMILES,"remaining activity at 100 µM [1, 3]","remaining activity at 100 µM [1, 4]",other results
"COC(=O)c1cc(O)c2cc(NC(=O)CCCCNC(=N)N)ccc2c1 [5a, Methyl 6-(5-Guanidinopentanamido)-4-hydroxy-2-naphthoate]",35 ± 0.3%,35 ± 0.3%,
"COC(=O)c1cc(O)c2cc(NC(=O)CCCCCCNC(=N)N)ccc2c1 [5c, Methyl 6-(7-Guanidinoheptanamido)-4-hydroxy-2-naphthoate]",-0.49 ± 0.1%,-0.49 ± 0.1%,IC50 [1]: 3800 nM; LE [1]: 0.27
"COC(=O)c1cc(O)c2cc(NC(=O)CCCCNC3=NCCN3)ccc2c1 [5g, Methyl 6-(5-((4,5-Dihydro-1H-imidazol-2-yl)amino)pentanamido)-4-hydroxy-2-naphthoate]",122 ± 5.8%,122 ± 5.8%,
"N=C(N)NCCCCC(=O)Nc1ccc2cc(C(=O)O)cc(O)c2c1 [6a, 6-(5-Guanidinopentanamido)-4-hydroxy-2-naphthoic Acid]",69.7 ± 2%,69.7 ± 2%,
"N=C(N)NCCCCCC(=O)Nc1ccc2cc(C(=O)O)cc(O)c2c1 [6b, 6-(6-Guanidinohexanamido)-4-hydroxy-2-naphthoic Acid]",65.9 ± 1%,65.9 ± 1%,
"CNC(=N)NCCCCCC(=O)Nc1ccc2cc(C(=O)O)cc(O)c2c1 [6d, 4-Hydroxy-6-(6-(3-methylguanidino)hexanamido)-2-naphthoic Acid]",50.4 ± 0.2%,50.4 ± 0.2%,
"CN(C)C(=N)NCCCCC(=O)Nc1ccc2cc(C(=O)O)cc(O)c2c1 [6e, 6-(5-(3,3-Dimethylguanidino)pentanamido)-4-hydroxy-2-naphthoic Acid]",36.8 ± 0.3%,36.8 ± 0.3%,
"O=C(CCCCNC1=NCCN1)Nc1ccc2cc(C(=O)O)cc(O)c2c1 [6f, 6-(5-((4,5-Dihydro-1H-imidazol-2-yl)amino)pentanamido)-4-hydroxy-2-naphthoic Acid]",25.1 ± 1.5%,25.1 ± 1.5%,
"C[S+](CC[C@H](N)C(=O)[O-])C[C@H]1O[C@@H](n2cnc3c(N)ncnc32)[C@H](O)[C@@H]1O (stereo partly drawn) [SAM, S-adenosyl-L-methionine, reference compound]",,,"Kd [2]: 9.6 nM; koff ([2]; SPR, immobilized PRMT4): 0.003 s⁻¹; kon ([2]; SPR, immobilized PRMT4, read-out: kon): 290000 M⁻¹ s⁻¹; τR ([2]; in vitro residence time, τ = 1/koff): 333.3 s"

# Continued, in another order:
"remaining activity at 100 µM [1, 3]","remaining activity at 100 µM [1, 4]",SMILES,other results
0.4 ± 0.1%,0.4 ± 0.1%,"COC(=O)c1cc(O)c2cc(NC(=O)NCCCNC(=N)N)ccc2c1 [7a, Methyl 6-(3-(3-Guanidinopropyl)ureido)-4-hydroxy-2-naphthoate]",IC50 [1]: 1600 nM; LE [1]: 0.31
-0.91 ± 0.1%,-0.91 ± 0.1%,"COC(=O)c1cc(O)c2cc(NC(=O)NCCCCCNC(=N)N)ccc2c1 [7c, Methyl 6-(3-(5-Guanidinopentyl)ureido)-4-hydroxy-2-naphthoate]",IC50 [1]: 1200 nM; LE [1]: 0.30
0.2 ± 0.1%,0.2 ± 0.1%,"CNC(=N)NCCCNC(=O)Nc1ccc2cc(C(=O)OC)cc(O)c2c1 [7d, Methyl 4-Hydroxy-6-(3-(3-(3-methylguanidino)propyl)ureido)-2-naphthoate]",IC50 [1]: 400 nM; LE [1]: 0.33
65.6 ± 2.1%,65.6 ± 2.1%,"COC(=O)c1cc(O)c2cc(NC(=O)NCCCn3ccnc3)ccc2c1 [7f, Methyl 6-(3-(3-(1H-Imidazol-1-yl)propyl)ureido)-4-hydroxy-2-naphthoate]",
31.5 ± 3.1%,31.5 ± 3.1%,"N=C(N)NCCCCNC(=O)Nc1ccc2cc(C(=O)O)cc(O)c2c1 [8a, 6-(3-(4-Guanidinobutyl)ureido)-4-hydroxy-2-naphthoic Acid]",
36.9 ± 10.5%,36.9 ± 10.5%,"O=C(NCCCn1ccnc1)Nc1ccc2cc(C(=O)O)cc(O)c2c1 [8b, 6-(3-(3-(1H-Imidazol-1-yl)propyl)ureido)-4-hydroxy-2-naphthoic Acid]",
92.1 ± 15.8%,92.1 ± 15.8%,"COC(=O)c1cc(O)c2cc(NC(=O)[C@@H](N)CCSC)ccc2c1 [9c, Methyl (S)-6-(2-Amino-4-(methylthio)butanamido)-4-hydroxy-2-naphthoate]",
75.9 ± 4.8%,75.9 ± 4.8%,"COC(=O)c1cc(O)c2cc(NC(=O)[C@H](CCSC)NC(=O)Nc3ccc(OC)cc3)ccc2c1 [9d, Methyl (S)-4-Hydroxy-6-(2-(3-(4-methoxyphenyl)ureido)-4-(methylthio)butanamido)-2-naphthoate]",
87.1 ± 2.9%,87.1 ± 2.9%,"COC(=O)c1cc(O)c2cc(NC(=O)CNC(=O)Nc3ccc(OC)cc3)ccc2c1 [10c, Methyl 4-Hydroxy-6-(2-(3-(4-methoxyphenyl)ureido)acetamido)-2-naphthoate]",
34.2 ± 5.1%,34.2 ± 5.1%,"COC(=O)c1cc(O)c2cc(NC(=O)[C@@H](N)CCCNC(=N)N)ccc2c1 [11c, Methyl (S)-6-(2-Amino-5-guanidinopentanamido)-4-hydroxy-2-naphthoate]",
